Data from paper PMC3115501 (Archives of biochemistry and biophysics, 2011).
Marks after values point to notes of the source that are not given here.

Columns and labels:
CYP3A4 [1] = conditions: cited from earlier work
CYP3A4 [2] = biological target: T1, CYP3A4 (Homo sapiens, UniProt P08684, S18F); conditions: cited from earlier work
3A4 = 3A4 in the presence of testosterone, reduction by NADPH/P450 reductase; cited from earlier work
CYP3A4 [3] = biological target: T1, CYP3A4; assay: Redox potential measurements by cyclic voltammetry of purified CYP3A4; conditions: 11 μM 3A4 complexed with 200 μM TST or 100 μM compound 1

| Structure (SMILES) | kcat (CYP3A4 [1]) | rate of dissociation from the low-spin complex (CYP3A4 [2]) | reduction rate, reported value (3A4) | ks (rate of electron transfer / rate constant for reduction) (CYP3A4 [3]) | α (electron transfer coefficient) (CYP3A4 [3]) | E^0 (formal potential) (CYP3A4 [3]; Equation 1) | ΔEp, ½ (CYP3A4 [3]; equation 2) | ks (rate of electron transfer / rate constant for reduction) (CYP3A4 [3]; listed as TST) |
| --- | --- | --- | --- | --- | --- | --- | --- | --- |
| CCC(C)n1ncn(-c2ccc(N3CCN(c4ccc(OCC5COC(Cn6cncn6)(c6ccc(Cl)cc6Cl)O5)cc4)CC3)cc2)c1=O (centres unmarked) [Itraconazole, itraconazole] | 0.0045 s⁻¹ | 0.002 s⁻¹ |  |  |  |  |  |  |
| C[C@]12CC[C@H]3[C@@H](CCC4=CC(=O)CC[C@@]43C)[C@@H]1CC[C@@H]2O [Testosterone] |  |  | 21 s⁻¹ | 5.6 s⁻¹ | 0.396 | -189 (3) ^e mV | 157 (6) mV | 5.56 s⁻¹ |
